What was measured:
[1] = tested on: artemisinin-resistant Pf Cam3.I^R539T; test: Modified ring-stage survival assay, combination with DHA, isobologram; assay type: cell-based, Plasmodium falciparum; conditions: 3-h pulse of DHA, continuous TDI-8304 for further 69 h; parasitemia at 72 h
[2] = tested on: P. falciparum strain Pf 3D7; test: Growth inhibition of erythrocytic stage P. falciparum Pf 3D7; assay type: cell-based, Plasmodium falciparum
Pf Dd2β6A117D = test: Growth inhibition of proteasome inhibitor-resistant Pf Dd2β6A117D; assay type: cell-based, Plasmodium falciparum; conditions: relative to Dd2
Pf Dd2β5A49S = test: Growth inhibition of proteasome inhibitor-resistant Pf Dd2β5A49S; assay type: cell-based, Plasmodium falciparum; conditions: relative to Dd2
[3] = tested on: Pf strain HB3 (chloroquine-sensitive); test: Growth inhibition of Pf strain HB3; assay type: cell-based, Plasmodium falciparum
[4] = tested on: Pf strain 3663 (ART-sensitive); test: Growth inhibition of Pf strain 3663; assay type: cell-based, Plasmodium falciparum
[5] = tested on: artemisinin-sensitive Pf Cam3.I^Rev; test: Modified ring-stage survival assay, combination with DHA, isobologram; assay type: cell-based, Plasmodium falciparum; conditions: 3-h pulse of DHA, continuous TDI-8304 for further 69 h; parasitemia at 72 h
[6] = tested on: P. falciparum Pf3D7^0087/N9; test: Humanized mouse model of Pf infection, parasitemia; assay type: in vivo, NOD-SCID IL-2R-null mice transfused with human erythrocytes; conditions: s.c. 100 mg/kg b.i.d., days 3 – 6 post infection
[7] = tested on: Pf strain 4884 (ART-resistant); test: Growth inhibition of Pf strain 4884; assay type: cell-based, Plasmodium falciparum
[8] = tested on: polyubiquitinated proteins in Pf trophozoites; test: Accumulation of polyubiquitinated proteins in parasites; assay type: cell-based, Plasmodium falciparum; conditions: 6-hour exposure, 1 μM
Pf20S β5 [9] = test: Blocking of MV151 labelling of Pf20S β5; assay type: binding, Plasmodium falciparum; conditions: with or without WLW-VS
Pf20S β5 [10] = test: Hydrolysis of suc-LLVY-AMC by Pf20S, time courses of inhibition; assay type: biochemical, Plasmodium falciparum
[11] = tested on: P. falciparum lab strain Dd2; test: Growth inhibition of Pf Dd2; assay type: cell-based, Plasmodium falciparum

O=C(NC1CCCC1)[C@@H]1CCCCOc2cccc(c2)C[C@H](N2CCCC2=O)C(=O)N[C@@H](CCN2CCOCC2)C(=O)N1 [TDI-8304]
Interaction with DHA (isobologram) [1]: synergistic killing | Potency (EC50) against P. falciparum Pf 3D7, in words [2]: highly potent | EC90 ([2]; strain not given, used as exposure threshold): 29 nM | Reduction in potency against Dd2β6A117D (Pf Dd2β6A117D): ~ 18 fold | EC50 against Dd2β5A49S compared with Dd2 (Pf Dd2β5A49S): comparable | Activity against Pf strain HB3 [3]: comparable activity | Activity against Pf strain 3663 [4]: comparable activity | Interaction with DHA (isobologram) [5]: synergistic killing | Reduction of parasitemia, one mouse [6]: 2 log10 | Activity against Pf strain 4884 [7]: comparable activity | Accumulation of polyubiquitinated proteins [8]: accumulation of polyubiquitinated proteins | Blocking of labelling of Pf20S β5 by MV151 (Pf20S β5 [9]): dose-dependently blocked labelling | t1/2 half-life for the Pf20S:TDI-8304 complex (Pf20S β5 [10]): 14.4 min | Inhibition modality (Pf20S β5 [10]; induced-fit mechanism): time-dependent inhibition | Potency against P. falciparum lab strain Dd2 [11]: potent

Reference: article PMC8087158 (Angewandte Chemie (International ed. in English), 2021)
